Reference: patent publication US5783703A, “Sulfur-containing compounds method for their use and prodction” (Lederle (Japan), Ltd., priority 1993, dated 1998)
Values after ≈ are worked out from the molar mass of the structure shown.

Key:
Assay in all cases: Antibacterial activity, agar plate dilution method (MIC), Experimental Example 2
Assay type in all cases: cell-based
B. subtilis ATCC 6633 = settings: Bacillus subtilis, ATCC6633, MH agar, 37° C., 18 hours
Description: (§1) There was measured, by the following method, the antibacterial activity of the compound (16) which had been produced in Example 14 with use of the compound (I) of the present invention as a synthesis intermediate.
(§2) There was employed the agar plate dilution method in accordance with the standard method of the Japanese Chemotherapy Society [Chemotherapy, vol. 29, 76-79 (1981)]. Concretely, a Mueller-Hinton (MH) agar liquid medium containing the test microorganism was cultured overnight at 37° C., and the resultant culture medium was diluted with a buffered saline gelatin (BSG) solution so that the concentration of the test microorganism might be about […]. Then, with use of a microplanter, this diluted solution was inoculated each about 5 μl on MH agar media containing the test compounds. Thus, the minimum concentration of the test compound in which no growth of the test microorganism was observed after the incubation at 37° C. for 18 hours was regarded as Minimum Inhibitory Concentration (MIC). Incidentally, all of the test organisms used here were standard strains.

E. coli NIHJ JC-2 = settings: Escherichia coli, NIHJJC2, MH agar, 37° C., 18 hours
Description: as §1, §2

S. aureus Terajima = settings: Staphylococcus aureus, MH agar, 37° C., 18 hours
Description: as §1, §2

S. typhimurium 11D971 = settings: Salmonella enterica, MH agar, 37° C., 18 hours
Description: as §1, §2

S. aureus FDA209P JC-1 = settings: Staphylococcus aureus, MH agar, 37° C., 18 hours
Description: as §1, §2

S. enteritidis G14 = settings: Salmonella enterica, MH agar, 37° C., 18 hours
Description: as §1, §2

M. luteus ATCC 9341 = settings: Micrococcus luteus, ATCC9341, MH agar, 37° C., 18 hours
Description: as §1, §2

P. mirabilis IFO 3849 = settings: Proteus mirabilis, IFO3849, MH agar, 37° C., 18 hours
Description: as §1, §2

P. rettgeri IFO 3850 = settings: Providencia rettgeri, IFO3850, MH agar, 37° C., 18 hours
Description: as §1, §2

E. coli K-12 C600 = settings: Escherichia coli, K12C600, MH agar, 37° C., 18 hours
Description: as §1, §2

S. marcescens IAM 1184 = settings: Serratia marcescens, IAM1184, MH agar, 37° C., 18 hours
Description: as §1, §2

S. schottmuelleri 8006 = settings: MH agar, 37° C., 18 hours
Description: as §1, §2

S. pyogenes Cook = settings: Streptococcus pyogenes, MH agar, 37° C., 18 hours
Description: as §1, §2

S. paratyphi 1015 = settings: Salmonella enterica, 18 h
Description: as §1, §2

S. aureus MS353 = settings: Staphylococcus aureus, MH agar, 37° C., 18 hours
Description: as §1, §2

M. morganii IFO 3848 = settings: Morganella morganii, IFO3848, MH agar, 37° C., 18 hours
Description: as §1, §2

P. vulgaris HX-19 = settings: Proteus vulgaris, HX19, MH agar, 37° C., 18 hours
Description: as §1, §2

E. aerogenes ATCC 13048 = settings: Klebsiella aerogenes, ATCC13048, MH agar, 37° C., 18 hours
Description: as §1, §2

S. typhi 901 = settings: Salmonella enterica, 18 h
Description: as §1, §2

E. cloacae 963 = settings: Enterobacter cloacae, MH agar, 37° C., 18 hours
Description: as §1, §2

P. vulgaris OX-19 = settings: Proteus vulgaris, OX19, MH agar, 37° C., 18 hours
Description: as §1, §2

K. pneumoniae PCI-602 = settings: Klebsiella pneumoniae, PCI602, MH agar, 37° C., 18 hours
Description: as §1, §2

SMILES: C[C@@H](O)[C@H]1C(=O)N2C(C(=O)O)=C(SC3CN(C4=NCCS4)C3)[C@H](C)[C@H]12 [compound (16), (1R, 5S, 6S)-2-[1-(1,3-thiazolin-2-yl)azetidin-3-yl]thio-6-[(R)-1-hydroxyethyl]-1-methylcarbapen-2-em-3-carboxylate]
- MIC (B. subtilis ATCC 6633): 0.025 µg/mL (≈ 0.0652 µM)
- MIC (E. coli NIHJ JC-2): 0.013 µg/mL (≈ 0.0339 µM)
- MIC (S. aureus Terajima): ≤ 0.006 µg/mL
- MIC (S. typhimurium 11D971): 0.025 µg/mL (≈ 0.0652 µM)
- MIC (S. aureus FDA209P JC-1): 0.013 µg/mL (≈ 0.0339 µM)
- MIC (S. enteritidis G14): 0.39 µg/mL (≈ 1.02 µM)
- MIC (M. luteus ATCC 9341): 0.2 µg/mL (≈ 0.522 µM)
- MIC (P. mirabilis IFO 3849): 0.39 µg/mL (≈ 1.02 µM)
- MIC (P. rettgeri IFO 3850): 0.39 µg/mL (≈ 1.02 µM)
- MIC (E. coli K-12 C600): 0.1 µg/mL (≈ 0.261 µM)
- MIC (S. marcescens IAM 1184): 0.05 µg/mL (≈ 0.13 µM)
- MIC (S. schottmuelleri 8006): 0.025 µg/mL (≈ 0.0652 µM)
- MIC (S. pyogenes Cook): ≤ 0.006 µg/mL
- MIC (S. paratyphi 1015): 0.05 µg/mL (≈ 0.13 µM)
- MIC (S. aureus MS353): ≤ 0.006 µg/mL
- MIC (M. morganii IFO 3848): 0.39 µg/mL (≈ 1.02 µM)
- MIC (P. vulgaris HX-19): 0.1 µg/mL (≈ 0.261 µM)
- MIC (E. aerogenes ATCC 13048): 0.1 µg/mL (≈ 0.261 µM)
- MIC (S. typhi 901): ≤ 0.006 µg/mL
- MIC (E. cloacae 963): 0.05 µg/mL (≈ 0.13 µM)
- MIC (P. vulgaris OX-19): 0.1 µg/mL (≈ 0.261 µM)
- MIC (K. pneumoniae PCI-602): 0.013 µg/mL (≈ 0.0339 µM)
